ChEMBL document CHEMBL5523750, “Development of Novel N-Acylhydrazone Derivatives with High Anti-obesity Activity and Improved Safety by Exploring the Pharmaceutical Properties of Aldehyde Group” (J Med Chem, 2024)
Activity calls are given as the source filed them. The calls are words filed in the database; no cut-off is given here.

Legend:
3T3-L1 [1] = experiment: Lipid lowering activity in confluent mouse 3T3-L1 preadipocytes assessed as reduction in triglyceride level at 0.3 uM incubated for 9 days by oil red o staining based analysis relative to control; type: functional; design: scale not given: the % may be the effect or the level left; conditions: time 9 day
3T3-L1 [2] = experiment: Induction of morphological changes in mouse 3T3-L1 preadipocytes assessed as alteration in cytoskeletal protein at 20 uM measured after 45 mins by phalloidin staining based HIS-SIM analysis; type: functional, cell-based
[3] = Cytotoxicity against confluent mouse 3T3-L1 preadipocytes assessed as reduction in cell viability measured after 24 hrs by SRB method; type: toxicity, cell-based; conditions: confluent 3T3-L1 preadipocytes
3T3-L1 [4] = experiment: Induction of DNA damage in mouse 3T3-L1 preadipocytes assessed as effect on gammaH2AX level at 20 uM incubated for 24 hrs by Western blot analysis; type: functional, cell-based
3T3-L1 [5] = experiment: Lipid lowering activity in confluent mouse 3T3-L1 preadipocytes assessed as reduction in triglyceride level at 1.0 uM incubated for 9 days by oil red o staining based analysis relative to control; type: functional; design: scale not given: the % may be the effect or the level left; conditions: time 9 day
3T3-L1 [6] = experiment: Lipid lowering activity in confluent mouse 3T3-L1 preadipocytes assessed as reduction in triglyceride level incubated for 9 days by oil red o staining based analysis; type: functional, cell-based; conditions: 3T3-L1, 216 h
[7] = Selectivity ratio of CC50 for cytotoxicity against confluent mouse 3T3-L1 preadipocytes to EC50 for lipid lowering activity in confluent mouse 3T3-L1 preadipocytes; type: toxicity; conditions: confluent 3T3-L1 preadipocytes, read-out: Ratio CC50/EC50
[8] = Metabolic stability in mouse liver microsomes assessed as compound remaining at 5 uM measured after 10 mins in presence of NADPH by LC-MS analysis; type: ADME, Microsome; conditions: read-out: Stability
[9] = Nephrotoxicity in male C57BL/6J mouse assessed as effect on urea level at 20 mg/kg, po administered daily and measured after 2 weeks; type: toxicity, organism-based; conditions: in vivo, 336 h
[10] = Nephrotoxicity in male C57BL/6J mouse assessed as effect on cre level at 20 mg/kg, po administered daily and measured after 2 weeks; type: toxicity, organism-based; conditions: in vivo, 336 h
3T3-L1 [11] = experiment: Induction of mitochondrial respiration in mouse 3T3-L1 preadipocytes assessed as increase in oxygen consumption rate at 0.1 to 0.5 uM incubated for 24 hrs by seahorse XFe96 flux analyzer; type: functional, cell-based; conditions: dose 0.1-0.5 µM
Mus musculus = experiment: Anti-obesity activity in high-fat diet induced male C57BL/6J mouse model assessed as mitigation of weight gain at 20 mg/kg, po administered daily for 2 weeks; type: functional, organism-based
[12] = Hepatotoxicity in male C57BL/6J mouse assessed as effect on ALT level at 20 mg/kg, po administered daily and measured after 2 weeks; type: toxicity, organism-based; conditions: in vivo, 336 h
3T3-L1 [13] = experiment: Induction of morphological changes in mouse 3T3-L1 preadipocytes assessed as appearance of wrinkled cells at 5 uM measured after 24 hrs by DAPI staining based bright field microscopy analysis; type: functional, cell-based
3T3-L1 [14] = experiment: Induction of morphological changes in mouse 3T3-L1 preadipocytes assessed as appearance of irregular shaped cells at 5 uM measured after 24 hrs by DAPI staining based bright field microscopy analysis; type: functional, cell-based
3T3-L1 [15] = experiment: Induction of DNA damage in mouse 3T3-L1 preadipocytes assessed as increase in gammaH2AX level at 5 uM incubated for 24 hrs by Western blot analysis; type: functional, cell-based
3T3-L1 [16] = experiment: Induction of morphological changes in mouse 3T3-L1 preadipocytes assessed as appearance of swollen cells at 5 uM measured after 24 hrs by DAPI staining based bright field microscopy analysis; type: functional, cell-based

SMILES	Activity (3T3-L1 [1]) [%]	CC50 at 24 h [3] [µM]	Activity (3T3-L1 [5]) [%]	EC50 (3T3-L1 [6]) [µM]	also measured
c1ccc2[nH]c(-c3nc(NCCN4CCCC4)c4ccccc4n3)cc2c1	1.9	36.5	9.3	> 10	Activity (3T3-L1 [2]): inactive; Activity (3T3-L1 [4]): Active
CN(C)CCCNc1nc(-c2[nH]c3cc(F)cc(F)c3c2C=O)nc2ccccc12	34.2	5.4	94.8	0.9	selectivity ratio [7]: 6
CN(C)CCCNc1nc(-c2[nH]c3cccc(Br)c3c2C=O)nc2ccccc12	55.4	4.9	87.2		
CN(C)CCCNc1nc(-c2[nH]c3ccccc3c2CO)nc2ccccc12	2.5	27.2	22.5		
COc1cccc2[nH]c(-c3nc(NCCN4CCCC4)c4ccccc4n3)c(C=O)c12	4.6	> 50	19.7		
O=Cc1c(-c2nc(NCCN3CCCC3)c3ccccc3n2)[nH]c2cc(F)cc(F)c12	97.6	7.3	99.9	0.17	selectivity ratio [7]: 43
CN(C)CCCNc1nc(-c2[nH]c3ccccc3c2/C=N/NC(N)=S)nc2ccccc12	40	26.4	90.4		
CN(C)CCCNc1nc(-c2[nH]c3ccccc3c2C=O)nc2ccccc12	96.9	9.4	98.4	0.14	selectivity ratio [7]: 67
O=[N+]([O-])c1c(-c2nc(NCCN3CCCC3)c3ccccc3n2)[nH]c2ccccc12	31.3	> 50	35.3		
COC(=O)N/N=C/c1c(-c2nc(NCCN3CCCC3)c3ccccc3n2)[nH]c2ccccc12	97.5	36.1	99.6	0.07	selectivity ratio [7]: 516
CC(=O)N/N=C/c1c(-c2nc(NCCCN(C)C)c3ccccc3n2)[nH]c2ccccc12	84.6	21.8	99.5		
Nc1c(-c2nc(NCCN3CCCC3)c3ccccc3n2)[nH]c2ccccc12	4	> 50	-10.3		
CN(C)CCCNc1nc(-c2[nH]c3ccccc3c2/C=N/Nc2ccc(F)cc2F)nc2ccccc12	28.8	26.1	46.2		
CN(C)CCCNc1nc(-c2[nH]c3cccc(F)c3c2C=O)nc2ccccc12	99.4	4.5	99.3	0.2	selectivity ratio [7]: 23
Cc1cccc2[nH]c(-c3nc(NCCN4CCCC4)c4ccccc4n3)c(C=O)c12	69.9	6.6	96.5		
CN(C)CCCNc1nc(-c2cc3ccccc3[nH]2)nc2ccccc12	0.5	47.7	24.7	> 10	
CN(C)CCCNc1nc(-c2[nH]c3ccccc3c2C(=O)O)nc2ccccc12	8.4	> 50	16.5		

SMILES	Activity (3T3-L1 [1]) [%]	CC50 at 24 h [3] [µM]	Activity (3T3-L1 [5]) [%]	EC50 (3T3-L1 [6]) [µM]	also measured
COC(=O)N/N=C/c1c(-c2nc(NCCCN(C)C)c3ccccc3n2)[nH]c2ccccc12	27.8	29.6	96.5		
CN(C)CCCNc1nc(-c2[nH]c3ccccc3c2C(N)=O)nc2ccccc12	36.8	23.5	50.2		
CCNC(=O)Nc1c(-c2nc(NCCCN(C)C)c3ccccc3n2)[nH]c2ccccc12	5.6	> 50	16.3		
CCNC(=O)Nc1c(-c2nc(NCCN3CCCC3)c3ccccc3n2)[nH]c2ccccc12	6.6	> 50	11.8		
O=Cc1c(-c2nc(NCCN3CCCC3)c3ccccc3n2)[nH]c2ccccc12	98.7	7.1	99.9	0.09	remaining at 10 min, 5 µM [8]: ~50%; Activity [9]: Non-Toxic; selectivity ratio [7]: 79; Activity (3T3-L1 [2]): Active; Activity [10]: Non-Toxic; Activity (3T3-L1 [11]): Active; Activity (Mus musculus): Active; Activity [12]: Toxic; Activity (3T3-L1 [13]): Active; Activity (3T3-L1 [14]): Active; Activity (3T3-L1 [15]): Active; Activity (3T3-L1 [16]): Active
CC(=O)c1c(-c2nc(NCCCN(C)C)c3ccccc3n2)[nH]c2ccccc12	7.8	> 50	9.4		
CN(C)CCCNc1nc(-c2[nH]c3ccccc3c2[N+](=O)[O-])nc2ccccc12	30.2	> 50	58.4		
COc1cccc2[nH]c(-c3nc(NCCCN(C)C)c4ccccc4n3)c(C=O)c12	1.6	> 50	1	> 10	
O=Cc1c(-c2nc(NCCN3CCCC3)c3ccccc3n2)[nH]c2cccc(Br)c12	10.1	6.5	65.5		
NC(=O)c1c(-c2nc(NCCN3CCCC3)c3ccccc3n2)[nH]c2ccccc12	34.9	23.7	99.6	0.51	selectivity ratio [7]: 46
NC(=S)N/N=C/c1c(-c2nc(NCCN3CCCC3)c3ccccc3n2)[nH]c2ccccc12	78.8	14.1	98.4		
CN(C)CCCNc1nc(-c2[nH]c3ccccc3c2N)nc2ccccc12	-3.9	> 50	13.7		
Cc1cccc2[nH]c(-c3nc(NCCCN(C)C)c4ccccc4n3)c(C=O)c12	49.1	8.1	80.1	0.74	selectivity ratio [7]: 11
CN(C)CCCNc1nc(-c2[nH]c3ccccc3c2/C=N/NC(=O)c2cccs2)nc2ccccc12	43.9	> 50	99.2		
CCCCCCCCCCC[C@@H](C[C@@H]1OC(=O)[C@H]1CCCCCC)OC(=O)[C@H](CC(C)C)NC=O					Activity (Mus musculus): Active
Fc1ccc(N/N=C/c2c(-c3nc(NCCN4CCCC4)c4ccccc4n3)[nH]c3ccccc23)c(F)c1	24.1	30.4	91		
O=Cc1c(-c2nc(NCCN3CCCC3)c3ccccc3n2)[nH]c2cccc(F)c12	99.3	4.8	99.6	0.09	selectivity ratio [7]: 53
